The values below come from US9765056B2, “Indole and pyrrole compounds, a process for their preparation and pharmaceutical compositions containing them” (LES LABORATOIRES SERVIER, priority 2013, dated 2017).

One assay has as its target Bcl-2 protein (histag-Bcl-2, UniProtKB P10415) (Homo sapiens (Human), UniProt P10415). Description: Inhibition of Bcl-2 by the fluorescence polarisation technique. The class given is binding. To be noted: fluorescence polarisation test; method A, or method B where underlined (underlining not visible); read-out: IC50 (nM) Bcl-2 FP. An excerpt:
Inhibition of Bcl-2 by the fluorescence polarisation technique

In assay [1] the test system is RS4;11 leukaemia tumour line. Description: In vitro cytotoxicity, Microculture Tetrazolium Assay (MTT). The class given is cell-based. The following applies: Homo sapiens; RS4;11 cells, 48 hours exposure. The procedure:
The cytotoxicity studies were carried out on the RS4;11 leukaemia tumour line.
The cells are distributed onto microplates and exposed to the test compounds for 48 hours. The cell viability is then quantified by a colorimetric assay, the Microculture Tetrazolium Assay (Cancer Res., 1987, 47, 939-942).

Counter-ions that a name gives are not always drawn.

Sequence of Bcl-2 protein (P10415 whole entry): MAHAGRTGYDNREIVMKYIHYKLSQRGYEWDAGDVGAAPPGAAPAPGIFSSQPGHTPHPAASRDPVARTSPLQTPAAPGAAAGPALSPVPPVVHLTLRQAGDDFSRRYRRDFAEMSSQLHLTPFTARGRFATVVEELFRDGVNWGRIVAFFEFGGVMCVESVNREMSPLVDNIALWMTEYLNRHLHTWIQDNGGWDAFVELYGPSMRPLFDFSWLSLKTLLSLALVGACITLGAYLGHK

Regarding `O=C(c1cn(-c2ccccc2C(=O)N2Cc3ccccc3C[C@H]2CO)c2ccccc12)N(c1ccccc1)c1ccc(O)cc1` [Example 172, 1-{2-[(3S)-3-(Hydroxymethyl)-1,2,3,4-tetrahydroisoquinoline-2-carbonyl]phenyl}-N-(4-hydroxyphenyl)-N-phenyl-1H-indole-3-carboxamide], the figures for the IC50 (on Bcl-2 protein; in assay [1]) were 4.2 nM and 1200 nM, respectively.

As to `O=C(c1cn(-c2ccccc2C(=O)N2Cc3ccccc3C[C@H]2CN2CCCCC2)c2ccccc12)N(c1ccccc1)c1ccc(O)cc1` [Example 173, N-(4-Hydroxyphenyl)-N-phenyl-1-{2-[(3S)-3-(piperidin-1-ylmethyl)-1,2,3,4-tetrahydroisoquinoline-2-carbonyl]phenyl}-1H-indole-3-carboxamide], the IC50 on Bcl-2 protein was determined as 168 nM; in assay [1], 2040 nM.

Take `O=C(c1cn(-c2cc3c(cc2C(=O)N2Cc4ccccc4C[C@H]2CN2CCCCC2)OCO3)c2ccccc12)N(c1ccccc1)c1ccc(O)cc1` [Example 174, N-(4-Hydroxyphenyl)-N-phenyl-1-{6-[(3S)-3-(piperidin-1-ylmethyl)-1,2,3,4-tetrahydroisoquinoline-2-carbonyl]-2H-1,3-benzodioxol-5-yl}-1H-indole-3-carboxamide]: the results for the IC50 (on Bcl-2 protein; in assay [1]) were 41.2 nM and 402 nM, respectively.

For `COc1ccc(C(=O)N2Cc3ccccc3C[C@H]2CN(C)C)c(-n2cc(C(=O)N(c3ccccc3)c3ccc(O)cc3)c3ccccc32)c1` [Example 175, 1-{2-[(3S)-3-[(Dimethylamino)methyl]-1,2,3,4-tetrahydroisoquinoline-2-carbonyl]-5-methoxyphenyl}-N-(4-hydroxyphenyl)-N-phenyl-1H-indole-3-carboxamide], the 50% inhibitory concentration (IC50) came out at 25.1 nM at Bcl-2 protein and 460 nM in assay [1].

On to `COc1cc(-n2cc(C(=O)N(c3ccccc3)c3ccc(O)cc3)c3ccccc32)c(C(=O)N2Cc3ccccc3C[C@H]2CN2CCCCC2)cc1O` [Example 176, 1-{4-Hydroxy-5-methoxy-2-[(3S)-3-(piperidin-1-ylmethyl)-1,2,3,4-tetrahydroisoquinoline-2-carbonyl]phenyl}-N-(4-hydroxyphenyl)-N-phenyl-1H-indole-3-carboxamide hydrochloride], for which the IC50 was found to be 6.2 nM at Bcl-2 protein and 225 nM in assay [1].

For the compound `CN1CCN(C[C@@H]2Cc3ccccc3CN2C(=O)c2cc3c(cc2-n2cc(C(=O)N(c4ccccc4)c4ccccc4)c4ccccc42)OCO3)CC1` [Example 177, 1-{6-[(3S)-3-[(4-Methylpiperazin-1-yl)methyl]-1,2,3,4-tetrahydroisoquinoline-2-carbonyl]-2H-1,3-benzodioxol-5-yl}-N,N-diphenyl-1H-indole-3-carboxamide dihydrochloride], the IC50 at Bcl-2 protein amounted to 18.8 nM; in assay [1] it was 568 nM.

For `CN1CCN(C[C@@H]2Cc3ccccc3CN2C(=O)c2ccc(Cl)cc2-n2cc(C(=O)N(c3ccccc3)c3ccccc3)c3ccccc32)CC1` [Example 178, 1-{5-Chloro-2-[(3S)-3-[(4-methylpiperazin-1-yl)methyl]-1,2,3,4-tetrahydroisoquinoline-2-carbonyl]phenyl}-N,N-diphenyl-1H-indole-3-carboxamide dihydrochloride], the IC50 on Bcl-2 protein was 17.5 nM; in assay [1], 812 nM.

As for `CN(C)C[C@@H]1Cc2ccccc2CN1C(=O)c1ccc(Cl)cc1-n1cc(C(=O)N(c2ccccc2)c2ccc(O)cc2)c2ccccc21` [Example 179, 1-{5-Chloro-2-[(3S)-3-[(dimethylamino)methyl]-1,2,3,4-tetrahydroisoquinoline-2-carbonyl]phenyl}-N-(4-hydroxyphenyl)-N-phenyl-1H-indole-3-carboxamide hydrochloride], the 50% inhibitory concentration (IC50) at Bcl-2 protein worked out at 18.1 nM; in assay [1], 886 nM.

Regarding `CN(C)C[C@@H]1Cc2ccccc2CN1C(=O)c1cc2c(cc1-n1cc(C(=O)N(c3ccccc3)c3ccc(O)cc3)c3ccccc31)OCO2` [Example 180, 1-{6-[(3S)-3-[(Dimethylamino)methyl]-1,2,3,4-tetrahydroisoquinoline-2-carbonyl]-2H-1,3-benzodioxol-5-yl}-N-(4-hydroxyphenyl)-N-phenyl-1H-indole-3-carboxamide hydrochloride], the IC50 on Bcl-2 protein stood at 11 nM; in assay [1] it was 210 nM.

Consider `COc1cc(-n2cc(C(=O)N(c3ccccc3)c3ccccc3)c3ccccc32)c(C(=O)N2Cc3ccccc3C[C@H]2CN2CCN(C)CC2)cc1O` [Example 181, 1-{4-Hydroxy-5-methoxy-2-[(3S)-3-[(4-methylpiperazin-1-yl)methyl]-1,2,3,4-tetrahydroisoquinoline-2-carbonyl]phenyl}-N,N-diphenyl-1H-indole-3-carboxamide dihydrochloride], for which the IC50 stood at 6.9 nM on Bcl-2 protein and 205 nM in assay [1].

`CN1CCN(C[C@@H]2Cc3ccccc3CN2C(=O)c2cc3c(cc2-n2cc(C(=O)N(c4ccccc4)c4ccc(O)cc4)c4ccccc42)OC(F)(F)O3)CC1` [Example 182, 1-{2,2-Difluoro-6-[(3S)-3-[(4-methylpiperazin-1-yl)methyl]-1,2,3,4-tetrahydroisoquinoline-2-carbonyl]-2H-1,3-benzodioxol-5-yl}-N-(4-hydroxyphenyl)-N-phenyl-1H-indole-3-carboxamide]: the values for the IC50 (at Bcl-2 protein; in assay [1]) were 111 nM and 1850 nM, respectively.

Take `CCC1COc2cc(-n3cc(C(=O)N(c4ccccc4)c4ccc(O)cc4)c4ccccc43)c(C(=O)N3Cc4ccccc4C[C@H]3CN3CCN(C)CC3)cc2O1` (stereo partly drawn) [Example 185, 1-{2-Ethyl-7-[(3S)-3-[(4-methylpiperazin-1-yl)methyl]-1,2,3,4-tetrahydroisoquinoline-2-carbonyl]-2,3-dihydro-1,4-benzodioxin-6-yl}-N-(4-hydroxyphenyl)-N-phenyl-1H-indole-3-carboxamide]: the IC50 at Bcl-2 protein stood at 17.3 nM; in assay [1], 422 nM.

With `O=C(c1cn(-c2cc(Cl)ccc2C(=O)N2Cc3ccccc3C[C@H]2CN2CCOCC2)c2ccccc12)N(c1ccccc1)c1ccc(O)cc1` [Example 186, 1-{5-Chloro-2-[(3S)-3-(morpholin-4-ylmethyl)-1,2,3,4-tetrahydroisoquinoline-2-carbonyl}phenyl]-N-(4-hydroxyphenyl)-N-phenyl-1H-indole-3-carboxamide hydrochloride], the IC50 at Bcl-2 protein was 23.5 nM; in assay [1], 626 nM.

With `COc1cc(-n2cc(C(=O)N(c3ccccc3)C3CCCCC3)c3ccccc32)c(C(=O)N2Cc3ccccc3C[C@H]2CN2CCN(C)CC2)cc1O` [Example 187, N-Cyclohexyl-1-{4-hydroxy-5-methoxy-2-[(3S)-3-[(4-methylpiperazin-1-yl)methyl]-1,2,3,4-tetrahydroisoquinoline-2-carbonyl}phenyl]-N-phenyl-1H-indole-3-carboxamide dihydrochloride], the IC50 on Bcl-2 protein was determined as 21.6 nM; in assay [1], 1990 nM.

As to `CN1CCN(C[C@@H]2Cc3ccccc3CN2C(=O)c2cc3c(cc2-n2cc(C(=O)N(c4ccccc4)c4ccc(O)cc4)c4ccccc42)OC[C@H](COCc2ccccc2)O3)CC1` [Example 188, 1-[(2S)-2-[(Benzyloxy)methyl]-7-[(3S)-3-[(4-methylpiperazin-1-yl)-methyl]-1,2,3,4-tetrahydroisoquinoline-2-carbonyl]-2,3-dihydro-1,4-benzodioxin-6-yl]-N-(4-hydroxyphenyl)-N-phenyl-1H-indole-3-carboxamide], the IC50 at Bcl-2 protein worked out at 16.8 nM; in assay [1], 68 nM.
